Experiments:
[1] = tested on: A549 cells; assay: A549 cell proliferation (viable cell counts); format: cell-based, human; conditions: for Growth arrest: p53 wild-type A549 cells, dexamethasone single dose 100 nM, counted six days; for Decrease in proliferation compared to control: 300 nM
Experimental: A549 cells were treated with ISIS 15534 or its scrambled control, ISIS 15521 at a concentration of 300 nM. Each day for the next 5 days, viable cells were counted.
A549 cells were seeded in 12-well tissue culture plates at about 50% confluence in DMEM containing 10% fetal bovine serum. The next day, cells were treated with the PP5-specific antisense oligonucleotide, ISIS 15534, or its scrambled control, ISIS 15521, at a final concentration of 300 nM as described in Example 7. On each of the following 5 days, cultures from three wells of each treatment gruop were trypsinized, collected and counted. Cell viability was determined by trypan blue staining, and the results given are the mean of three independent experiments.
A549 cells were seeded in 12-well tissue culture plates at a density of 5.0×10^4 cell/dish. On the next day, the cells were treated with PP5 specific antisense oligonucleotides (ISIS 15534) or the scrambled mismatch control (ISIS 15521) at a final concentration of 300 nM as described above. On each of the next five days, the cell cultures were treated briefly with trypsin to detach the cells from the dish (three wells from each test group). The number of cells was then determined by counting using a hemacytometer. Cell viability was determined with trypan blue staining. The percentage of viable cells was calculated by dividing the number of cells excluding trypan blue by the total number of cells, and the results are reported as the mean +/- SD of data collected from three independent experiments.
(§1) The antiproliferative effect of dexamethasone correlates with the presence of wild type p53 and the expression of p21^Waf1/Cip1 mRNA. Referring to FIGS. 1A-1C, the effect of dexamethasone on cell proliferation in p53-defective T-24 human bladder carcinoma, p53-null TR9 human fibroblasts (Webster et al. 1993; Maiyar et al. 1996), and p53 wild-type A549 human lung carcinoma cells was determined by treating cells in log-phase growth with a single dose of 100 nM dexamethasone and counting the number of cells in treated (.cndot.) and untreated (.box-solid.) cultures for six consecutive days following treatment. Each point represents the mean of triplicate dishes with error bars representing SE. Under similar conditions, treatment with ISIS 15534, a potent inhibitor of PP5 gene expression, inhibited growth in A459 but not T-24 or TR9 cells (Zuo et al. 1998). Referring to FIG. 1D, a comparison of p21^Waf1/Cip1 (p21) and serum glucocorticoid inducible protein kinase (sgk) mRNA levels in p53 competent (Lanes 3, 4) and p53 deficient (Lanes 1, 2, 5, 6) cell cultures after dexamethasone treatment is shown. Cell cultures in logphase growth were treated with 100 nM dexamethasone (+) or vehicle alone as a control (-). After 24 hours total mRNA was prepared and analyzed for p21 and sgk mRNA levels by Northern analysis.

[2] = tested on: p21^Waf1/Cip1 mRNA; assay: Northern analysis of p21Waf1/Cip1 mRNA in T-24 cells; format: cell-based, human; conditions: dexamethasone 100 nM, 24 hours
Experimental: (§2) The cells were harvested, and total RNA was extracted with TRIzol® Reagent according to the methods of the manufacturer. Total RNA (20 μg) was fractionated on 1% agarose gels containing formaldehyde and transferred to DURLON-UV nylon membranes (Stratagene). Following UV cross-linking, the filters were hybridized with a [α^32 P]probe for human PP5. The human PP5 cDNA probe was generated from the full length coding region of PP5 and [α^32 P]-dATP was labeled with DECAprime® DNA Labeling Kit according to the manufacturer's protocol. […] Quantification of hybridization signals was achieved by analysis of the scanned autoradiograms using the NIH Image program (ImagePC). […]
(§3) The antiproliferative effect of dexamethasone correlates with the presence of wild type p53 and the expression of p21^Waf1/Cip1 mRNA. Referring to FIGS. 1A-1C, the effect of dexamethasone on cell proliferation in p53-defective T-24 human bladder carcinoma, p53-null TR9 human fibroblasts (Webster et al. 1993; Maiyar et al. 1996), and p53 wild-type A549 human lung carcinoma cells was determined by treating cells in log-phase growth with a single dose of 100 nM dexamethasone and counting the number of cells in treated (.cndot.) and untreated (.box-solid.) cultures for six consecutive days following treatment. […] After 24 hours total mRNA was prepared and analyzed for p21 and sgk mRNA levels by Northern analysis.

[3] = tested on: p21^Waf1/Cip1 mRNA; assay: Northern analysis of p21Waf1/Cip1 mRNA in A549 cells; format: cell-based, human; conditions: dexamethasone 100 nM, 24 hours
Experimental: The cells were harvested, and total RNA was extracted with TRIzol® Reagent according to the methods of the manufacturer. Total RNA (20 μg) was fractionated on 1% agarose gels containing formaldehyde and transferred to DURLON-UV nylon membranes (Stratagene). Following UV cross-linking, the filters were hybridized with a [α^32 P]probe for human PP5. […] Hybridization was performed in the presence of 50% formamide, 0.1 M Pipes, 0.8 M NaCl, 5×Denhardt's solution, 100 μg/ml denatured herring sperm DNA, 1×10^6 cpm/ml [α-^32 P]-labeled probe and 10% dextran sulfate at 42° C. for 16 hours. […] Quantification of hybridization signals was achieved by analysis of the scanned autoradiograms using the NIH Image program (ImagePC).
Referring to FIG. 1D, a comparison of p21^Waf1/Cip1 (p21) and serum glucocorticoid inducible protein kinase (sgk) mRNA levels in p53 competent (Lanes 3, 4) and p53 deficient (Lanes 1, 2, 5, 6) cell cultures after dexamethasone treatment is shown. […] After 24 hours total mRNA was prepared and analyzed for p21 and sgk mRNA levels by Northern analysis.
After 24 hours, 20 μg of total RNA was prepared and analyzed for serine/threonine protein phosphatase 5 (PP5), p21^Waf1/Cip1 (p21), and serum/glucocorticoid inducible kinase (sgk) mRNA levels. […]

[4] = tested on: p53-null TR9 human fibroblasts; assay: TR9 cell proliferation (cell counts); format: cell-based; conditions: dexamethasone single dose 100 nM, counted six days
Experimental: as §1

[5] = tested on: GR luciferase reporter plasmid MMTV-luc; assay: MMTV-Luc glucocorticoid-responsive luciferase reporter assay in A549 cells; format: cell-based, human; conditions: 300 nM ISIS 15534 without dexamethasone, dexamethasone ≥100 nM for 2 hours
Experimental: Transfections and luciferase assays were conducted as described by Jones et al. (1996) using a mouse mammary tumor virus-luciferase reporter plasmid (MMTV-Luc). […] Briefly, A549 cells were transfected in serum-free medium with 1 μg MMTV-Luc plasmid DNA per 60 mm dish using 15 μg/ml Lipofectin. ODNs were added into the transfection media wherever applicable. After a 4-hour incubation, the medium was replaced with fresh complete culture medium, and the cells were cultured overnight. The cells were then treated with different amounts of dexamethasone for two hours. Cell extracts were prepared with reporter lysis buffer (Promega). […] Light production was measured for 20 seconds at 562 nm using a Monolight 2010 luminometer (Analytical Luminescence Lab., San Diego, Calif.). To control for difference in transfection efficiency, contransfections were performed with 1 μg of a plasmid encoding β-galactosidase controlled by the SV40 virus promoter (pSV-β-GAL). β-GAL activity was measured in 150 μl cell extracts using the β-Galactosidase Enzyme Assay System (Promega).
A549 cells were transiently transfected with GR luciferase reporter plasmid, MMTV-luc (Jones et al. 1996). […] The relative light units of the cell extract were calculated as an average of three independent experiments, performed in triplicate, and presented as relative luciferase activity with error bars indicating SD.

[6] = tested on: p21^Waf1/Cip1 mRNA; assay: Northern analysis of p21Waf1/Cip1 mRNA in TR9 cells; format: cell-based, human; conditions: dexamethasone 100 nM, 24 hours
Experimental: as §2, §3

[7] = tested on: p53-defective T-24 human bladder carcinoma cells; assay: T-24 cell proliferation (cell counts); format: cell-based; conditions: p53-defective T-24 cells; dexamethasone single dose 100 nM, counted six days
Experimental: as §1

[8] = tested on: A549 cells; assay: [3H]-thymidine incorporation (DNA synthesis) in A549 cells; format: cell-based, human; conditions: 300 nM
Experimental: Cells were pulse-labeled with [^3 H]-thymidine for 5 hours at intervals over the next five days. Cells were lysed and [^3 H]-thymidine incorporation (indicative of DNA synthesis) was determined by liquid scintillation counting.
At timed intervals during the next 5 days, cells were pulse-labeled with [^3 H]-thymidine (0.5 μCi/ml) for 5 hours. […] The results given are the mean of three independent experiments.

Molecule | A549 cell growth when expression of p53 is suppressed with ISIS 8345 ([1]; dexamethasone ≥100 nM) | Growth arrest [1] | Expression of p21^Waf1/Cip1 [2] | Expression of p21^Waf1/Cip1 [3] | Growth arrest [4] | GR-reporter plasmid activation [5] | Expression of p21^Waf1/Cip1 [6] | Growth arrest [7] | Decrease in proliferation compared to control ([1]; day 2) [%] | Decrease in proliferation compared to control ([1]; day 3) [%] | Decrease in proliferation compared to control ([1]; day 4) [%] | Decrease in proliferation compared to control ([1]; day 5) [%] | Decrease in [3H]-thymidine incorporation compared to control ([8]; day 2) | Decrease in [3H]-thymidine incorporation compared to control ([8]; day 3) [%] | Decrease in [3H]-thymidine incorporation compared to control ([8]; day 4) [%] | [3H]-thymidine incorporation relative to untreated cells ([8]; day 5)
C[C@@H]1C[C@H]2[C@@H]3CCC4=CC(=O)C=C[C@]4(C)[C@@]3(F)[C@@H](O)C[C@]2(C)[C@@]1(O)C(=O)CO [dexamethasone, reference compound] | partially inhibit | produced growth arrest | neither ISIS 15534 nor dexamethasone induced | concomitant increase in the expression of p21^Waf1/Cip1 | neither ISIS 15534 nor dexamethasone induced | more pronounced | neither ISIS 15534 nor dexamethasone induced | neither ISIS 15534 nor dexamethasone induced |  |  |  |  |  |  |  | 
ISIS 15534: chimeric PP5 antisense oligonucleotide, P=O wings, P=S deoxy gap; GGGCCCTATTGCTTGAGTGG, SEQ ID NO: 12 (sugars by position and backbone not given here; chimeric, phosphodiester wings, phosphorothioate deoxy gap) |  | produced growth arrest | neither ISIS 15534 nor dexamethasone induced | concomitant increase in the expression of p21^Waf1/Cip1 | neither ISIS 15534 nor dexamethasone induced | induces glucocorticoid-mediated transcriptional activation | neither ISIS 15534 nor dexamethasone induced | neither ISIS 15534 nor dexamethasone induced | 55 | 75 | 89 | 55 | approximately 85% | ~88 | ~62 | approximately equivalent in treated and untreated cells

— US6235891A, “Glucocorticoid receptor agonist and decreased PP5” (South Alabama Medical Science Foundation, priority 1999, dated 2001)
